Laboratory results from patent US6903079B2, “Nucleoside compounds and compositions thereof” (Inotek Pharmaceuticals Corporation, priority 2000, dated 2005).

Key:
[1] = tested on: rat model of middle cerebral artery occlusion/reperfusion; experiment: Middle cerebral artery occlusion/reperfusion; assay type: in vivo; conditions: 2 h occlusion, 24 h reperfusion, 10 mg/kg i.v. then 10 mg/kg/h, tetrazolium staining
Description: Occlusion lasted for 2 hours, followed by reperfusion for 24 hours. Infarct size was quantified with tetrazolium staining and survival and neurological scores were monitored. The compounds were administered at 10 mg/kg i.v. 5 min before the start of reperfusion in one group, and continued at a rate of 10 mg/kg/h infusion during the reperfusion. Vehicle-treated animals (control) developed a >50% mortality over 24 hours, whereas <10% of the animals died in the drug treated groups. The compounds tested reduced the size of brain infarction by 64±2 and 57±3%, respectively.

[2] = tested on: endotoxin-induced lethality in a mouse model; experiment: Endotoxin-induced lethality (systemic inflammation); assay type: in vivo
Description: The compounds were given as oral gavage at 10 mg/kg, twice a day.

[3] = tested on: myocardial ischemia-reperfusion in Male Wistar rats; experiment: Myocardial infarction by left anterior descending coronary artery occlusion/reperfusion; assay type: in vivo; conditions: rat; 20 mg/kg i.v. 10 min before reperfusion; 1 h ischemia, 2 h reperfusion
Description: In another set of experiments, Male Wistar rats were anesthetized with thiopentone sodium (60 mg/kg, i.p.) and were subjected to myocardial infarction. The chest was opened at the fourth intercostal space and a 5.0 silk ligature was placed around the left anterior descending coronary artery for occlusion. Next, one hour of myocardial ischemia was performed, followed by 2 h reperfusion. Myocardial infarct size was quantified by tetrazolium staining.

[4] = tested on: mouse model of gut ischemia-reperfusion; experiment: Gut ischemia-reperfusion by ligation and release of superior mesenteric artery; FD4 gut permeability in everted gut sacks; conditions: 10 mg/kg i.v. 10 min prior to reperfusion
Description: In order to examine the efficacy of the compounds of the invention in ischemia-reperfusion conditions, the effect of selected compounds in a local model of reperfusion injury was examined. […] The artery was occluded for 45 min, followed by reperfusion for 1 h. Following the end of the reperfusion, gut permeability was measured with the fluorescein isothiocyanate-conjugated dextran (FD4) method in everted gut sacks.
The artery was occluded for 45 min, followed by reperfusion for 1 h. Following the end of the reperfusion, gut permeability was measured with the FD4 method in everted gut sacks.

PARS = PARS (Mus musculus, UniProt P11103); experiment: PARS inhibition by nucleoside derivatives (in vitro inflammation models); assay type: cell-based
Source text: For example, conjugates of adenosine derivatives were investigated for PARS inhibition.

Sequence of PARS (P11103 whole entry): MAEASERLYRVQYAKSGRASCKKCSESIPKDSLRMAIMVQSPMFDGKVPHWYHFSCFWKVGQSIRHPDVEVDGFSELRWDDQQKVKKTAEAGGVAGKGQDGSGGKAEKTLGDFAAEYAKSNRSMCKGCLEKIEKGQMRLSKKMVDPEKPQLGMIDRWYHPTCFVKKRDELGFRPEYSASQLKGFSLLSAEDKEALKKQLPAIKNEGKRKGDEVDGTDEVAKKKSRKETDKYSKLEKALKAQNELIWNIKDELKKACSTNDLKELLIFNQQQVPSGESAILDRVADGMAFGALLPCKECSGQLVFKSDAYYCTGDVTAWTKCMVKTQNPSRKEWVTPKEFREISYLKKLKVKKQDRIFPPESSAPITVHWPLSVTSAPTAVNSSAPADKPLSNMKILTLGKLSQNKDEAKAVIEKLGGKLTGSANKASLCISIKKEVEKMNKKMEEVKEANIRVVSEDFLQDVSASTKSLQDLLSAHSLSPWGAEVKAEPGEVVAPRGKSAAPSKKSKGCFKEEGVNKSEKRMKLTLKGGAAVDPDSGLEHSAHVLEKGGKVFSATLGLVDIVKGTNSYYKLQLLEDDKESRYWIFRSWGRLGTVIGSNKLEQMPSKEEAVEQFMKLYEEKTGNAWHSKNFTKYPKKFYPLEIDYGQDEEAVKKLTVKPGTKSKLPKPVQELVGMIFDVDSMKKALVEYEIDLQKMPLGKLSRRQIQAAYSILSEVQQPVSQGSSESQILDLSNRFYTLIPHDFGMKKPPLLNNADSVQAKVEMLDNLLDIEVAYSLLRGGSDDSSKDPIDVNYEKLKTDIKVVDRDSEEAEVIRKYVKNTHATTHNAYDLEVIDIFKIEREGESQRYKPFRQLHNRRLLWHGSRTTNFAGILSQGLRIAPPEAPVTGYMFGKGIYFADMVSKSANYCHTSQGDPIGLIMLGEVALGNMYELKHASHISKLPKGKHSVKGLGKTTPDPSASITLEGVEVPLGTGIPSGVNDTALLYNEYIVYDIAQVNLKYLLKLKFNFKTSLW

What does the source list for Nc1ncnc2c1ncn2C1OC(C(=O)N2CCN(CC(=O)Nc3cccc4c3CNC4=O)CC2)C(O)C1O (stereo not shown) [Compound 130]?
reduction of the size of brain infarction [1]: 57±3%; protection against endotoxin-induced lethality [2]: protected against endotoxin-induced lethality; reduction of myocardial infarct size [3]: 35±7%; reduction of the increase in the permeability of the gut [4]: 74%; PARS inhibitory activity (in words) (PARS): most potent; inhibition at 10 µM (PARS; 10 μM, values marked *, asterisk not explained, read-out: Inhibition at 10 μM (values marked *)): 97%; Inhibition at 200 nm (PARS; 200 nm, printed in the 100 μM column): 100 at 200 nm
